1 molecule from ChEMBL document CHEMBL5226310, “Synthesis and Characterization of Novel Mono- and Bis-Guanyl Hydrazones as Potent and Selective ASIC1 Inhibitors Able to Reduce Brain Ischemic Insult” (J Med Chem, 2021) can be followed below.

One may read the inhibition as the percentage by which the read-out fell short of the control. For orientation: IC50 means the midpoint of a concentration-inhibition curve.

Experiment [1] has as its system Mus musculus. The experiment in a line: Neuroprotective activity in mouse model of middle cerebral artery occlusion-induced transient brain ischemia assessed as reduction in focal neurological deficits at 0.65 mg/kg, ip administered thrice measured upto 72 hrs. It is filed as functional, organism-based.
The subject of experiment [2] is Mus musculus. The experiment in a line: Neuroprotective activity in mouse model of middle cerebral artery occlusion-induced transient brain ischemia assessed as ischemic volume at 0.65 mg/kg, ip administered thrice measured after 24 hrs relative to control. It is filed as functional.
The target of experiment [3] is T1, Acid-sensing ion channel 1 (Mus musculus) (UniProt Q6NXK8).
T1 sequence (whole entry): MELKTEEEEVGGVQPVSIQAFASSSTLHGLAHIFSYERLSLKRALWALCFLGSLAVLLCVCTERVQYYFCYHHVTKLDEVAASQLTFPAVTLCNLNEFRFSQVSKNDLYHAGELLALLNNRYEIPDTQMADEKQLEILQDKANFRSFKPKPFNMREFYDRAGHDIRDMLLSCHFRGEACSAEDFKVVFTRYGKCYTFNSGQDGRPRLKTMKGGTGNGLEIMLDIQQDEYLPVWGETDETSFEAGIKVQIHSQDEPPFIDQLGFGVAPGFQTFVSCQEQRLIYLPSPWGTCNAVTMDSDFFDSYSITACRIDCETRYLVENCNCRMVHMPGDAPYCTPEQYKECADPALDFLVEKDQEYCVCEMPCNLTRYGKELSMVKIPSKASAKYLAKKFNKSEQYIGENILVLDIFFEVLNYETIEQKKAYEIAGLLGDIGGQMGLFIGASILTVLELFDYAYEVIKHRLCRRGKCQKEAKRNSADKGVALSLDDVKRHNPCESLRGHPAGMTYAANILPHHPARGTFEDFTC
Put plainly: Inhibition of mouse ASIC1a expressed in genetically engineered-CHO-K1 cells at 10 uM preincubated for 10 mins at pH 7.4 followed by cell stimulation with proton injection at pH 6.5 by electro-chromic fluorescence voltage sensor-based assay relative to control.

Experiment [4] has as its system Mus musculus. The experiment in a line: Neuroprotective activity in mouse model of middle cerebral artery occlusion-induced transient brain ischemia assessed as reduction in general neurological deficits at 0.65 mg/kg, ip administered thrice measured upto 72 hrs. It is filed as functional, organism-based.
Experiment [5] has as its system Cortical neurone. The experiment in a line: Neuroprotective activity in OGD/Rx-induced E16 Wistar rat Primary cortical neurons assessed as increase in cell viability at 0.4 uM incubated for 3 hrs during OGD followed by compound removal and reoxygenation measured after 21 hrs by MTT assay. Format: functional, cell-based. A general note: Tetrazolium dyes change colour on reduction, which living cells bring about.

In experiment [6] the test system is Mus musculus. The experiment in a line: Neuroprotective activity in mouse model of middle cerebral artery occlusion-induced transient brain ischemia assessed as reduction in focal neurological deficits at 0.65 mg/kg, ip administered thrice measured after 24 hrs. It is filed as functional, organism-based.
Experiment [7] addresses T2, Acid-sensing ion channel 2 (Mus musculus) (UniProt Q925H0).
T2 sequence (whole entry): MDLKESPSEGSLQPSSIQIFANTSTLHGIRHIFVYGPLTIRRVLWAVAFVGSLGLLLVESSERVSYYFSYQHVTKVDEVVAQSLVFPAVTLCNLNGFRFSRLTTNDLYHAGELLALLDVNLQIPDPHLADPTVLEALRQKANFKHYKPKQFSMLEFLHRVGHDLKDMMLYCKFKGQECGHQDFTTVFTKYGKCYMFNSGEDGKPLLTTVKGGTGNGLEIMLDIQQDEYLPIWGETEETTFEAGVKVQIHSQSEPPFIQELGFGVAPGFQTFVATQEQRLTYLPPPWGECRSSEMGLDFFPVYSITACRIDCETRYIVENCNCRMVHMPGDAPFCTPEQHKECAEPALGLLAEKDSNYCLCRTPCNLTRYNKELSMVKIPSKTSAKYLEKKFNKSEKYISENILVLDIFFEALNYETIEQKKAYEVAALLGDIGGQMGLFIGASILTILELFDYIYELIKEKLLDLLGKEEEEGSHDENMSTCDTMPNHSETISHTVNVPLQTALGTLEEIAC
The experiment in a line: Inhibition of mouse ASIC2a expressed in genetically engineered-CHO-K1 cells at 10 uM preincubated for 10 mins at pH 7.4 followed by cell stimulation with proton injection at pH 6.5 by electro-chromic fluorescence voltage sensor-based assay relative to control.

Experiment [8] deals with Mus musculus. Put plainly: Neuroprotective activity in mouse model of middle cerebral artery occlusion-induced transient brain ischemia assessed as reduction in general neurological deficits at 0.65 mg/kg, ip administered thrice measured after 24 hrs. Format: functional, organism-based.
The subject of experiment [9] is Mus musculus. Put plainly: Neuroprotective activity in mouse model of middle cerebral artery occlusion-induced transient brain ischemia assessed as ischemic volume at 6.5 mg/kg, ip administered thrice measured after 24 hrs relative to control. It is filed as functional.
Experiment [10] concerns Mus musculus. The experiment in a line: Neuroprotective activity in mouse model of middle cerebral artery occlusion-induced transient brain ischemia assessed as reduction in ischemic volume at 0.65 mg/kg, ip administered thrice measured upto 72 hrs relative to control. Format: functional. Set-up: scale not given: the % may be the effect or the level left.
Experiment [11] concerns Cortical neurone. The experiment in a line: Neuroprotective activity in OGD/Rx-induced E16 Wistar rat Primary cortical neurons assessed as increase in cell viability at 0.4 uM incubated for 3 hrs during OGD followed by reoxygenation with compound re-addition measured after 21 hrs by MTT assay. Format: functional, cell-based. The settings on record: time 24.0 hrs.
Experiment [12] concerns the target T3, Acid-sensing ion channel 1 (Homo sapiens) (UniProt P78348).
T3 sequence (whole entry): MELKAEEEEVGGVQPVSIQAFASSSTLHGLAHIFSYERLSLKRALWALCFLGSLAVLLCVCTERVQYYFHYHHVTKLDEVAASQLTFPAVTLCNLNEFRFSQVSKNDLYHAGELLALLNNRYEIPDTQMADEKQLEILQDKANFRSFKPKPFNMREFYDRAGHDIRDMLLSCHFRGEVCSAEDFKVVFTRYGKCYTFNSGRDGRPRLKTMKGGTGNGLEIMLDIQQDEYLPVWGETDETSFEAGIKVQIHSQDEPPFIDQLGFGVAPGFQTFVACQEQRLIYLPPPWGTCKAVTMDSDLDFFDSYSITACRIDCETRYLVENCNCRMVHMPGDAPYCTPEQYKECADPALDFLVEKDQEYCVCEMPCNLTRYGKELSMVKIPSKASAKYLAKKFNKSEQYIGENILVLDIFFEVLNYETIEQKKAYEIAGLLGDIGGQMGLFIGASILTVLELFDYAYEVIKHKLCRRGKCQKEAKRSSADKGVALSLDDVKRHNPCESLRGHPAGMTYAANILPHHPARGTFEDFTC
Put plainly: Inhibition of ASIC1a in acid stimulated-human Neural Progenitor Cells assessed as reduction in current amplitude at pH 6.5 at 10 uM measured for 5 mins with acid stimulation for every 2 mins by electrophysiology (reference value: 92.41 +/- 33.66 pA). It is filed as cell-based. The following applies: Neural Progenitor Cell.

Experiment [13] concerns the target T4, Acid-sensing ion channel 1 (Homo sapiens, UniProt P78348).
T4 sequence (P78348 whole entry): T3 sequence (whole entry)
Put plainly: Inhibition of human ASIC1a in HEK293 cells assessed as inward proton-gated current at pH 6.0 incubated with compound followed by PcTx1 addition by patch-clamp electrophysiology. Format: cell-based.

The test system of experiment [14] is Mus musculus. Put plainly: Neuroprotective activity in mouse model of middle cerebral artery occlusion-induced transient brain ischemia assessed as decrease in ischemic volume at 0.65 mg/kg, ip administered thrice measured after 24 hrs (reference value: 58 +/- 2.6 %). Format: functional. Set-up: scale not given: the % may be the effect or the level left.
The target in experiment [15] is T3, Acid-sensing ion channel 1 (Homo sapiens). The experiment in a line: Inhibition of ASIC1a in acid stimulated-human Neural Progenitor Cells assessed as reduction in current amplitude at pH 6.5 at 10 uM measured for 5 mins with acid stimulation for every 2 mins by electrophysiology relative to control. Format: cell-based. The following applies: Neural Progenitor Cell.

Experiment [16] has as its system Cortical neurone. Put plainly: Neuroprotective activity in OGD/Rx-induced E16 Wistar rat Primary cortical neurons assessed as increase in cell viability incubated for 3 hrs during OGD followed by reoxygenation with compound re-addition measured after 21 hrs by MTT assay. The following applies: time 24.0 hrs. It is filed as functional, cell-based.

Each structure is given as a SMILES string. Activity calls are given as the source filed them. No cut-off for these calls is given here.

In the case of `Cl.N=C(N)N/N=C\c1ccc(-c2cccc(-c3ccc(/C=N/NC(=N)N)cc3)c2)cc1`, the result in the experiment with Mus musculus [1], with Mus musculus [4], with Cortical neurone [5], in the experiment with Mus musculus [6], in the experiment with Mus musculus [8] and in the experiment with Cortical neurone [11] was Active. The Activity is 47.1% in the experiment on Mus musculus [2]; 50.1% in the experiment with Mus musculus [9]; 35.3% in the experiment on Mus musculus [10]; 9.37 pA in experiment [12]; 34.7% in the experiment on Mus musculus [14]; “Dose-Dependent Effect” in the experiment on Cortical neurone [16]. For the same molecule, the inhibition in experiment [3] amounted to 53%; in experiment [7], 35.4%; in experiment [15], 70%. Also, the IC50 in [13] came out at 0.407 µM.
